This series is described as follows: activity coefficient (dimensionless); of the first substance listed, at infinite dilution; xn = mol fraction of the nth substance listed. Particulars: Liquid, Chromatography, x1 = 0.

Numbers after ± are expanded uncertainties.

Regarding `Cc1ccccc1` [toluene] + CCCCCCCCn1cc[n+](COCCCOC[n+]2ccn(CCCCCCCC)c2C)c1C.O=S(=O)([N-]S(=O)(=O)C(F)(F)F)C(F)(F)F.O=S(=O)([N-]S(=O)(=O)C(F)(F)F)C(F)(F)F, the activity coefficient (323.15 K) is 0.54 ± 0.04, the activity coefficient (333.15 K) turned out to be 0.53 ± 0.04 and the activity coefficient (343.15 K) is 0.54 ± 0.04.
In the case of `Cc1ccccc1` [toluene] + CCCOC[n+]1ccc(N(C)C)cc1.O=S(=O)([N-]S(=O)(=O)C(F)(F)F)C(F)(F)F, the activity coefficient is 0.99 ± 0.06 (323.15 K), 1.04 ± 0.07 (333.15 K) and 1.05 ± 0.07 (343.15 K).
On to `Cc1ccccc1` [toluene] + CCCOC[n+]1ccn(C)c1.F[B-](F)(F)F, for which the activity coefficient was found to be 6.06 ± 0.41 (323.15 K), 6.02 ± 0.41 (333.15 K) and 5.98 ± 0.41 (343.15 K).
Taken in the same sequence, the figures for `Cc1ccccc1` [toluene] + CCCOC[n+]1ccn(C)c1.N#C[N-]C#N were 3.6 ± 0.25, 3.65 ± 0.25 and 3.77 ± 0.26.
Taken in the same sequence, the figures for `Cc1ccccc1` [toluene] + CCCOC[n+]1ccn(C)c1.O=S(=O)([N-]S(=O)(=O)C(F)(F)F)C(F)(F)F were 1.7 ± 0.11, 1.68 ± 0.11 and 1.69 ± 0.11.
Taken in the same sequence, the figures for `Cc1ccccc1` [toluene] + CCCOC[n+]1ccn(Cc2ccccc2)c1.F[B-](F)(F)F were 3.12 ± 0.21, 3.03 ± 0.21 and 3.04 ± 0.21.
`Cc1ccccc1` [toluene] + CCCOC[n+]1ccn(Cc2ccccc2)c1.N#C[N-]C#N: the activity coefficient was 2.29 ± 0.16 (323.15 K), 2.26 ± 0.15 (333.15 K) and 2.25 ± 0.15 (343.15 K).
Taken in the same sequence, the figures for `Cc1ccccc1` [toluene] + CCCOC[n+]1ccn(Cc2ccccc2)c1.O=S(=O)([N-]S(=O)(=O)C(F)(F)F)C(F)(F)F were 1.09 ± 0.07, 0.97 ± 0.06 and 0.96 ± 0.06.
Consider `Cc1ccccc1` [toluene] + CN(C)c1cc[n+](COCCCOC[n+]2ccc(N(C)C)cc2)cc1.O=S(=O)([N-]S(=O)(=O)C(F)(F)F)C(F)(F)F.O=S(=O)([N-]S(=O)(=O)C(F)(F)F)C(F)(F)F, for which the activity coefficient stood at 0.92 ± 0.06 (323.15 K), 0.94 ± 0.06 (333.15 K) and 0.96 ± 0.06 (343.15 K).
The like results for `Cc1ccccc1` [toluene] + Cn1cc[n+](COCCCOC[n+]2ccn(C)c2)c1.N#C[N-]C#N.N#C[N-]C#N were, in that order, 5.63 ± 0.38, 5.58 ± 0.38 and 5.49 ± 0.37.
The like results for `Cc1ccccc1` [toluene] + Cn1cc[n+](COCCCOC[n+]2ccn(C)c2)c1.O=S(=O)([N-]S(=O)(=O)C(F)(F)F)C(F)(F)F.O=S(=O)([N-]S(=O)(=O)C(F)(F)F)C(F)(F)F were, in that order, 1.46 ± 0.1, 1.48 ± 0.1 and 1.46 ± 0.1.
With `Cc1ccccc1` [toluene] + N#C[N-]C#N.N#C[N-]C#N.c1ccc(Cn2cc[n+](COCCCOC[n+]3ccn(Cc4ccccc4)c3)c2)cc1, the activity coefficient was 5.08 ± 0.35 (323.15 K), 4.97 ± 0.34 (333.15 K) and 4.8 ± 0.33 (343.15 K).
For the molecule `ClC(Cl)Cl` [trichloromethane] + CCCCCCCCn1cc[n+](COCCC)c1C.N#C[N-]C#N, the activity coefficient by setting is: (323.15 K) 0.27 ± 0.03; (333.15 K) 0.3 ± 0.03; (343.15 K) 0.33 ± 0.03.
Taken in the same sequence, the figures for `ClC(Cl)Cl` [trichloromethane] + CCCCCCCCn1cc[n+](COCCC)c1C.O=S(=O)([N-]S(=O)(=O)C(F)(F)F)C(F)(F)F were 0.51 ± 0.04, 0.49 ± 0.04 and 0.53 ± 0.04.
Taken in the same sequence, the figures for `ClC(Cl)Cl` [trichloromethane] + CCCCCCCCn1cc[n+](COCCCOC[n+]2ccn(CCCCCCCC)c2C)c1C.N#C[N-]C#N.N#C[N-]C#N were 0.24 ± 0.03, 0.26 ± 0.03 and 0.27 ± 0.03.
Taken in the same sequence, the figures for `ClC(Cl)Cl` [trichloromethane] + CCCCCCCCn1cc[n+](COCCCOC[n+]2ccn(CCCCCCCC)c2C)c1C.O=S(=O)([N-]S(=O)(=O)C(F)(F)F)C(F)(F)F.O=S(=O)([N-]S(=O)(=O)C(F)(F)F)C(F)(F)F were 0.39 ± 0.03, 0.38 ± 0.03 and 0.39 ± 0.03.
As for `ClC(Cl)Cl` [trichloromethane] + CCCOC[n+]1ccc(N(C)C)cc1.O=S(=O)([N-]S(=O)(=O)C(F)(F)F)C(F)(F)F, the activity coefficient (323.15 K) came to 0.71 ± 0.05, the activity coefficient (333.15 K) is 0.75 ± 0.05 and the activity coefficient (343.15 K) came to 0.79 ± 0.05.
Turning to `ClC(Cl)Cl` [trichloromethane] + CCCOC[n+]1ccn(C)c1.F[B-](F)(F)F, the activity coefficient (323.15 K) is 1.74 ± 0.12, the activity coefficient (333.15 K) is 1.8 ± 0.12 and the activity coefficient (343.15 K) is 1.87 ± 0.13.
The like results for `ClC(Cl)Cl` [trichloromethane] + CCCOC[n+]1ccn(C)c1.N#C[N-]C#N were, in that order, 0.8 ± 0.05, 0.85 ± 0.05 and 0.92 ± 0.06.
The like results for `ClC(Cl)Cl` [trichloromethane] + CCCOC[n+]1ccn(C)c1.O=S(=O)([N-]S(=O)(=O)C(F)(F)F)C(F)(F)F were, in that order, 1.03 ± 0.06, 1.06 ± 0.07 and 1.06 ± 0.07.
Taken in the same sequence, the figures for `ClC(Cl)Cl` [trichloromethane] + CCCOC[n+]1ccn(Cc2ccccc2)c1.F[B-](F)(F)F were 1.16 ± 0.07, 1.15 ± 0.07 and 1.2 ± 0.08.
As for `ClC(Cl)Cl` [trichloromethane] + CCCOC[n+]1ccn(Cc2ccccc2)c1.N#C[N-]C#N, the activity coefficient (323.15 K) worked out at 0.62 ± 0.04, the activity coefficient (333.15 K) worked out at 0.65 ± 0.04 and the activity coefficient (343.15 K) amounted to 0.69 ± 0.05.
The like results for `ClC(Cl)Cl` [trichloromethane] + CCCOC[n+]1ccn(Cc2ccccc2)c1.O=S(=O)([N-]S(=O)(=O)C(F)(F)F)C(F)(F)F were, in that order, 0.73 ± 0.05, 0.65 ± 0.04 and 0.66 ± 0.05.
The like results for `ClC(Cl)Cl` [trichloromethane] + CN(C)c1cc[n+](COCCCOC[n+]2ccc(N(C)C)cc2)cc1.O=S(=O)([N-]S(=O)(=O)C(F)(F)F)C(F)(F)F.O=S(=O)([N-]S(=O)(=O)C(F)(F)F)C(F)(F)F were, in that order, 0.67 ± 0.05, 0.69 ± 0.05 and 0.7 ± 0.05.
The like results for `ClC(Cl)Cl` [trichloromethane] + Cn1cc[n+](COCCCOC[n+]2ccn(C)c2)c1.N#C[N-]C#N.N#C[N-]C#N were, in that order, 1.02 ± 0.06, 1.08 ± 0.07 and 1.14 ± 0.07.
For the molecule `ClC(Cl)Cl` [trichloromethane] + Cn1cc[n+](COCCCOC[n+]2ccn(C)c2)c1.O=S(=O)([N-]S(=O)(=O)C(F)(F)F)C(F)(F)F.O=S(=O)([N-]S(=O)(=O)C(F)(F)F)C(F)(F)F, the activity coefficient reads like this: (323.15 K) 0.87 ± 0.06; (333.15 K) 0.89 ± 0.06; (343.15 K) 0.71 ± 0.05.
The like results for `ClC(Cl)Cl` [trichloromethane] + N#C[N-]C#N.N#C[N-]C#N.c1ccc(Cn2cc[n+](COCCCOC[n+]3ccn(Cc4ccccc4)c3)c2)cc1 were, in that order, 1.22 ± 0.08, 1.2 ± 0.08 and 1.33 ± 0.09.

Source of the values: the NIST ThermoML archive (doi:10.1016/j.fluid.2014.11.020).
